The values below are quoted from earlier work in publication PMC8453635, “Piperidine Azasugars Bearing Lipophilic Chains: Stereoselective Synthesis and Biological Activity as Inhibitors of Glucocerebrosidase (GCase)” (The Journal of Organic Chemistry, 2021).

The structures appear in SMILES notation. Residue numbers refer to the chain shown, from its start. Where two headings read alike, the source gives them in different places.

In series [1] the test system is N370S mutant enzyme in fibroblasts. To be noted: cited from earlier work.
Another series addresses lysosomal GCase. To be noted: toward GCase; cited from earlier work.
The next series relates to L444P variant. More on the design: method as in PMID 12434014. To be noted: cited from earlier work.
In another series the test system is wild-type fibroblasts. More on the design: method as in PMID 32200326. To be noted: cited from earlier work.
The next series concerns the target T1, GCase (Homo sapiens, UniProt P04062).
T1 construct: screened toward GCase in leukocytes isolated from healthy donors (controls); from tissue; host or cells: leukocytes isolated from healthy donors, disrupted by sonication
T1 sequence (P04062 40-536): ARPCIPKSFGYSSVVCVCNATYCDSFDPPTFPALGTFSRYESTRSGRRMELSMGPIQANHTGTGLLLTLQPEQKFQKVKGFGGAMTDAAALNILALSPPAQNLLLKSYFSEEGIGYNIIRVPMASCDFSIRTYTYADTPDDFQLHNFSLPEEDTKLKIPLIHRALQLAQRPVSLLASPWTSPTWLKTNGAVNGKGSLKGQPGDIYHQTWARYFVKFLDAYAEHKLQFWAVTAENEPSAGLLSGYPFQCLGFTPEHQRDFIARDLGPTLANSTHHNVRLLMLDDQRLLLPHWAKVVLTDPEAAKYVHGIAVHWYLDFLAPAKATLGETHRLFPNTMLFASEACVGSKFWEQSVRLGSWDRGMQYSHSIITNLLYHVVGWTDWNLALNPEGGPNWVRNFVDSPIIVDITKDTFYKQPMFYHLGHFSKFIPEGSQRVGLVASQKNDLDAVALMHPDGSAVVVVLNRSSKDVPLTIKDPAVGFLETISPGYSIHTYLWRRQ
The note with it: cited from earlier work; for IC50: human leukocytes, same experimental protocol and substrate concentration.

In series [2] the target is T2, GCase in fibroblasts bearing the L444P/L444P mutations (Homo sapiens, UniProt P04062, L483P).
T2 construct: fibroblasts derived from Gaucher patients bearing the N370S/RecNcil and L444P/L444P mutations; host or cells: fibroblasts from Gaucher disease patients, L444P/L444P
T2 sequence (P04062 40-536 L483P): T1 sequence (P04062 40-536) with L444P
More on the design: method as in PMID 30996807, PMID 32200326. The note with it: homozygous L444P mutation, 100 μM; cited from earlier work.

Series [3] deals with T3, GCase in fibroblasts bearing the N370S/RecNcil mutation (Homo sapiens, UniProt P04062, A495P/L483P/N409S).
T3 construct: fibroblasts derived from Gaucher patients bearing the N370S/RecNcil and L444P/L444P mutations; host or cells: fibroblasts from Gaucher disease patients, N370S/RecNcil
T3 sequence (P04062 40-536 N409S): T1 sequence (P04062 40-536) with N370S
On the set-up: method as in PMID 30996807, PMID 32200326. The note with it: 100 μM; cited from earlier work.

One may read the IC50 as the concentration needed to halve the response being measured. As for `CCCCCCCCC[C@H]1NC[C@@H](O)[C@H](O)[C@H]1O` [compound 7, α-1-C-nonyl-DIX], the enzyme activity increase in series [1] (N370S mutated fibroblasts at 10 nM) is recorded as 1.8 fold. Further, the IC50 on lysosomal GCase was 6.8 nM.
For the compound `CCCCCCCCCN1C[C@H](O)[C@@H](O)[C@H](O)[C@H]1CO` [compound 5, N-nonyl-DNJ], the “enhancement of intracellular activity of the L444P variant” value with L444P variant was “did not enhance”. Besides, the “increase in the activity of the N370S mutant enzyme” value in series [1] (fibroblasts, 10 μM concentration) is given as “twofold increase”.
As for `CCCCCCCCN1C[C@@H](O)C(O)[C@H](O)C1` [compound 9], the activity increase in series [1] (N370S-mutated fibroblasts at 100 μM) was 1.25 fold. The “PC activity (enzyme activity enhancement)” value in the series on wild-type fibroblasts (50 μM) is on record as 1.5 fold. On GCase (human leukocytes extracts incubated with azasugars (1 mM), previously reported compounds), the “GCase inhibition [%]” value was 98%. At GCase, the IC50 is 30 ± 1 µM.
With `CCCCCCCC[C@@H]1NC[C@@H](O)[C@@H](O)[C@@H]1O` [compound 11], the 50% inhibitory concentration (IC50) on GCase (ref 16 and 17) is 93.5 ± 5.3 µM.
As for `CCCCCCCC[C@H]1NC[C@@H](O)[C@@H](O)[C@@H]1O` [compound 12], the “PC activity (enzyme activity enhancement)” value in the series on wild-type fibroblasts (100 μM) is listed as 1.4 fold. In addition, the enzyme recovery in series [2] is listed as 1.80 fold; in series [3] it was 1.9 fold. For the same compound, at GCase (ref 16 and 17), the concentration for half-maximal inhibition (IC50) was 29.3 ± 1.8 µM.
